Key:
Alternaria solani = assay: Alternaria test (tomatoes)/preventive; type: in vivo; conditions: preventive, evaluated 3 days after inoculation
Venturia inaequalis = assay: Venturia test (apples)/preventive; conditions: preventive, 100 ppm a.i., evaluated 10 days after inoculation
Protocol: After the spray coating has dried on, the plants are inoculated with an aqueous conidia suspension of the causal agent of apple scab (Venturia inaequalis) and then remain for 1 day in an incubation cabinet at approximately 20° C. and a relative atmospheric humidity of 100%.
The plants are then placed in a greenhouse at approximately 21° C. and a relative atmospheric humidity of approximately 90%.
The test is evaluated 10 days after the inoculation.

Sphaerotheca fuliginea = assay: Sphaerotheca test (cucumbers)/preventive; conditions: preventive, 100 ppm a.i., evaluated 7 days after inoculation
Protocol: After the spray coating has dried on, the plants are inoculated with an aqueous spore suspension of Sphaerotheca fuliginea. The plants are then placed in a greenhouse at approximately 23° C. and a relative atmospheric humidity of approximately 70%.
The test is evaluated 7 days after the inoculation.

N#Cc1ccccc1NC(=O)c1snc(Cl)c1Cl [F187, isotianil]
Efficacy in % Found (Alternaria solani; Table C1, tomatoes, 50 ppm a.i.): 36%
Efficacy in % Found (Venturia inaequalis): 0%
Efficacy in % Found (Sphaerotheca fuliginea): 0%

Cc1cc(C(F)(F)F)nn1CC(=O)N1CCC(c2nc(C3=NOC(c4c(F)cccc4F)C3)cs2)CC1 (stereo not drawn) [F315, 1-(4-{4-[5-(2,6-difluorophenyl)-4,5-dihydro-1,2-oxazol-3-yl]-1,3-thiazol-2-yl}piperidin-1-yl)-2-[5-methyl-3-(trifluoromethyl)-1H-pyrazol-1-yl]ethanone]
Efficacy in % Found (Alternaria solani; Table C1, tomatoes, 100 ppm a.i.): 0%

fosetyl-aluminium [F281]
Efficacy in % Found (Alternaria solani; Table C2, tomatoes, 100 ppm a.i.): 0%

phosphorous acid and its salts [F298]
Efficacy in % Found (Alternaria solani; Table C2, tomatoes, 400 ppm a.i.): 35%

From patent publication US9814241B2
